Values quoted from earlier work, collected in patent US20070148205A1, “Prevention of Arterial Restenosis with Active Vitamin D Compounds” (priority 2004, published 2007).

Details: in vivo

## C=C1/C(=C\C=C2/CCC[C@]3(C)C([C@H](C)CC#CC(C)(C)O)=CC[C@@H]23)C[C@@H](O)C[C@@H]1O [Ro23-7553]
  Hypercalcemic effect compared to calcitriol, in words: reduced hypercalcemic effect
